Assay results: ChEMBL document CHEMBL3885861, “Open TG-GATES”

Organism: Rattus norvegicus
Experiment: Open TG-GATES - Regimen: Daily Repeat
Type: toxicity, organism-based, Sprague-Dawley
Set-up: regimen Daily Repeat, gender Male, age 6 weeks
Conditions: in vivo, po, 30 mg/kg, route gavage, dose level Middle; for APTT / Bas / Eos / Fbg / Hb / Ht / Lym / MCH / MCHC / MCV / Mono / Neu / PT / Plat / RBC / Ret / WBC: tissue Blood; for KIDNEY_L / KIDNEY_R / KIDNEY_TOTAL: tissue Kidney; for LIVER: tissue Liver; for A/G / ALP / ALT / AST / BUN / CRE / Ca / Cl / DBIL / GLC / IP / K / LDH / Na / PL / RALB / TBIL / TC / TG / TP / gamma-GTP: tissue Plasma

Compound `CN(C)CCN(Cc1cccs1)c1ccccn1` has a TERMINAL_BW (72 h, time 3 day) of 210.2 g, an APTT (72 h, time 3 day) of 20.9 s and a Bas (72 h, time 3 day) of 0%. The Eos (72 h, time 3 day) was 0.6%, the Fbg (72 h, time 3 day) was 325.4 mg/dL and the Hb (72 h, time 3 day) was 13.2 g/dL. For the same compound, the Ht (72 h, time 3 day) was 38.8%, the Lym (72 h, time 3 day) was 80% and the MCH (72 h, time 3 day) was 21.7 pg. The MCHC (72 h, time 3 day) was 34%, the MCV (72 h, time 3 day) was 63.8 fL and the Mono (72 h, time 3 day) was 2%. For the same compound, the Neu (72 h, time 3 day) was 16.4%, the PT (72 h, time 3 day) was 15.9 s and the Plat (72 h, time 3 day) was 116.7 x10_4/uL. It also gave an RBC (72 h, time 3 day) of 609 x10_4/ul, a Ret (72 h, time 3 day) of 6.1% and a WBC (72 h, time 3 day) of 94.3 x10_2/uL. For the same compound, the KIDNEY_L (72 h, time 3 day) was 1 g, the KIDNEY_R (72 h, time 3 day) was 1 g and the KIDNEY_TOTAL (72 h, time 3 day) was 2 g. The LIVER (72 h, time 3 day) was 10.2 g, the A/G (72 h, time 3 day) was 1.2 and the ALP (72 h, time 3 day) was 1737.4 IU/L. It also gave an ALT (72 h, time 3 day) of 45.2 IU/L, an AST (72 h, time 3 day) of 75.8 IU/L and a BUN (72 h, time 3 day) of 15 mg/dL. For the same compound, the CRE (72 h, time 3 day) was 0.1 mg/dL, the Ca (72 h, time 3 day) was 11 mg/dL and the Cl (72 h, time 3 day) was 106.2 meq/L. It also gave a DBIL (72 h, time 3 day) of 0 mg/dL, a GLC (72 h, time 3 day) of 175.4 mg/dL and an IP (72 h, time 3 day) of 7.7 mg/dL. For the same compound, the K (72 h, time 3 day) was 4.3 meq/L, the LDH (72 h, time 3 day) was 224.4 IU/L and the Na (72 h, time 3 day) was 142 meq/L. It also gave a PL (72 h, time 3 day) of 140.8 mg/dL, an RALB (72 h, time 3 day) of 2.9 g/dL and a TBIL (72 h, time 3 day) of 0.012 mg/dL. For the same compound, the TC (72 h, time 3 day) was 72.6 mg/dL, the TG (72 h, time 3 day) was 82 mg/dL and the TP (72 h, time 3 day) was 5.4 g/dL. For the same compound, the gamma-GTP (72 h, time 3 day) was 1.2 IU/L, the TERMINAL_BW ([…], time 7 day) was 254.5 g and the TERMINAL_BW ([…], time 14 day) was 275 g. For the same compound, the TERMINAL_BW ([…], time 28 day) was 322.8 g, the APTT ([…], time 7 day) was 20.7 s and the Bas ([…], time 7 day) was 0%. For the same compound, the Eos ([…], time 7 day) was 0.8%, the Fbg ([…], time 7 day) was 304.2 mg/dL and the Hb ([…], time 7 day) was 13.2 g/dL. For the same compound, the Ht ([…], time 7 day) was 39.1%, the Lym ([…], time 7 day) was 78.6% and the MCH ([…], time 7 day) was 21.4 pg. The MCHC ([…], time 7 day) was 33.7%, the MCV ([…], time 7 day) was 63.5 fL and the Mono ([…], time 7 day) was 1.6%. For the same compound, the Neu ([…], time 7 day) was 18%, the PT ([…], time 7 day) was 15.9 s and the Plat ([…], time 7 day) was 120.9 x10_4/uL. The RBC ([…], time 7 day) was 617 x10_4/ul, the Ret ([…], time 7 day) was 6.3% and the WBC ([…], time 7 day) was 124 x10_2/uL. The APTT ([…], time 14 day) was 21.4 s, the Bas ([…], time 14 day) was 0% and the Eos ([…], time 14 day) was 1%. The Fbg ([…], time 14 day) was 309.6 mg/dL, the Hb ([…], time 14 day) was 14.2 g/dL and the Ht ([…], time 14 day) was 41.2%. It also gave a Lym ([…], time 14 day) of 77.8%, an MCH ([…], time 14 day) of 20.5 pg and an MCHC ([…], time 14 day) of 34.4%. It also gave an MCV ([…], time 14 day) of 59.6 fL, a Mono ([…], time 14 day) of 2.4% and a Neu ([…], time 14 day) of 18.6%. For the same compound, the PT ([…], time 14 day) was 16.2 s, the Plat ([…], time 14 day) was 108.7 x10_4/uL and the RBC ([…], time 14 day) was 691.6 x10_4/ul. The Ret ([…], time 14 day) was 3.9%, the WBC ([…], time 14 day) was 110.7 x10_2/uL and the APTT ([…], time 28 day) was 20.7 s. The Bas ([…], time 28 day) was 0%, the Eos ([…], time 28 day) was 1.4% and the Fbg ([…], time 28 day) was 282 mg/dL. The Hb ([…], time 28 day) was 14.6 g/dL, the Ht ([…], time 28 day) was 42.2% and the Lym ([…], time 28 day) was 74.2%. For the same compound, the MCH ([…], time 28 day) was 19.2 pg, the MCHC ([…], time 28 day) was 34.5% and the MCV ([…], time 28 day) was 55.5 fL. The Mono ([…], time 28 day) was 2.6%, the Neu ([…], time 28 day) was 21.4% and the PT ([…], time 28 day) was 16.1 s. It also gave a Plat ([…], time 28 day) of 106.9 x10_4/uL, an RBC ([…], time 28 day) of 760.6 x10_4/ul and a Ret ([…], time 28 day) of 2.7%. It also gave a WBC ([…], time 28 day) of 115.8 x10_2/uL, a KIDNEY_L ([…], time 7 day) of 1.1 g and a KIDNEY_R ([…], time 7 day) of 1.1 g. The KIDNEY_TOTAL ([…], time 7 day) was 2.2 g, the KIDNEY_L ([…], time 14 day) was 1.1 g and the KIDNEY_R ([…], time 14 day) was 1.2 g. The KIDNEY_TOTAL ([…], time 14 day) was 2.3 g, the KIDNEY_L ([…], time 28 day) was 1.3 g and the KIDNEY_R ([…], time 28 day) was 1.3 g. It also gave a KIDNEY_TOTAL ([…], time 28 day) of 2.5 g, an LIVER ([…], time 7 day) of 11.7 g and an LIVER ([…], time 14 day) of 11.9 g. For the same compound, the LIVER ([…], time 28 day) was 13.7 g, the A/G ([…], time 7 day) was 1.1 and the ALP ([…], time 7 day) was 1578.6 IU/L. It also gave an ALT ([…], time 7 day) of 40.4 IU/L, an AST ([…], time 7 day) of 69.2 IU/L and a BUN ([…], time 7 day) of 17.6 mg/dL. For the same compound, the CRE ([…], time 7 day) was 0.2 mg/dL, the Ca ([…], time 7 day) was 10.7 mg/dL and the Cl ([…], time 7 day) was 107 meq/L. For the same compound, the DBIL ([…], time 7 day) was 0 mg/dL, the GLC ([…], time 7 day) was 170.4 mg/dL and the IP ([…], time 7 day) was 7 mg/dL. For the same compound, the K ([…], time 7 day) was 4.3 meq/L, the LDH ([…], time 7 day) was 132.4 IU/L and the Na ([…], time 7 day) was 144.4 meq/L. For the same compound, the PL ([…], time 7 day) was 134.4 mg/dL, the RALB ([…], time 7 day) was 2.9 g/dL and the TBIL ([…], time 7 day) was 0.012 mg/dL. For the same compound, the TC ([…], time 7 day) was 71.4 mg/dL, the TG ([…], time 7 day) was 64.8 mg/dL and the TP ([…], time 7 day) was 5.4 g/dL. It also gave a gamma-GTP ([…], time 7 day) of 1.8 IU/L, an A/G ([…], time 14 day) of 1.1 and an ALP ([…], time 14 day) of 1753 IU/L. For the same compound, the ALT ([…], time 14 day) was 54.4 IU/L, the AST ([…], time 14 day) was 98.2 IU/L and the BUN ([…], time 14 day) was 18.8 mg/dL. The CRE ([…], time 14 day) was 0.2 mg/dL, the Ca ([…], time 14 day) was 10.3 mg/dL and the Cl ([…], time 14 day) was 107.8 meq/L. It also gave a DBIL ([…], time 14 day) of 0.008 mg/dL, a GLC ([…], time 14 day) of 166.8 mg/dL and an IP ([…], time 14 day) of 6.8 mg/dL. The K ([…], time 14 day) was 4.1 meq/L, the LDH ([…], time 14 day) was 177.4 IU/L and the Na ([…], time 14 day) was 143.8 meq/L. For the same compound, the PL ([…], time 14 day) was 131.8 mg/dL, the RALB ([…], time 14 day) was 2.9 g/dL and the TBIL ([…], time 14 day) was 0.026 mg/dL. It also gave a TC ([…], time 14 day) of 70.2 mg/dL, a TG ([…], time 14 day) of 56 mg/dL and a TP ([…], time 14 day) of 5.5 g/dL. The gamma-GTP ([…], time 14 day) was 2 IU/L, the A/G ([…], time 28 day) was 1.1 and the ALP ([…], time 28 day) was 1511.8 IU/L. It also gave an ALT ([…], time 28 day) of 74.6 IU/L, an AST ([…], time 28 day) of 129.2 IU/L and a BUN ([…], time 28 day) of 17.6 mg/dL. The CRE ([…], time 28 day) was 0.2 mg/dL, the Ca ([…], time 28 day) was 10.3 mg/dL and the Cl ([…], time 28 day) was 107 meq/L. The DBIL ([…], time 28 day) was 0.008 mg/dL, the GLC ([…], time 28 day) was 169 mg/dL and the IP ([…], time 28 day) was 6.2 mg/dL. It also gave a K ([…], time 28 day) of 4.2 meq/L, an LDH ([…], time 28 day) of 182.2 IU/L and a Na ([…], time 28 day) of 141.8 meq/L. For the same compound, the PL ([…], time 28 day) was 140.4 mg/dL, the RALB ([…], time 28 day) was 3 g/dL and the TBIL ([…], time 28 day) was 0.022 mg/dL. The TC ([…], time 28 day) was 80 mg/dL, the TG ([…], time 28 day) was 39.4 mg/dL and the TP ([…], time 28 day) was 5.6 g/dL. For the same compound, the gamma-GTP ([…], time 28 day) was 2.8 IU/L.
